Measured values published in US20100105746A1, “METHOD FOR TREATING METABOLIC DISEASES” (priority 2008, published 2010).

Key:
[1] = Multiplex bioanalytics profiling of plasma lipids in drug-dosed rats (Example 1); format: in vivo, rat; settings: 7 days
Experimental: Multiplex bioanalytics profiling can elucidate novel pharmacological actions of drugs via measurement of hundreds of disease-relevant biomolecules in biofluids collected from drug-dosed animals. Romazarit was evaluated via a full multiplex bioanalytics profiling study.
(§1) In an initial experiment, two dose groups of six animals per group received either 5 or 50 mg/kg b.i.d., and a further group received vehicle only, as a control. A follow-up experiment was performed to explore dose-response and the selected doses were 15 and 50 mg/kg b.i.d., again plus control.
In both experiments, urine was collected from each animal by clean-catch after the final dose on day 7, and cerebrospinal fluid (CSF) and plasma were collected (terminal samples) on day 8. Aliquots of the CSF and plasma samples from each individual were submitted for LC-MS analyses of bioanalytes. Three different separation methods were run, with MS analyses in both positive and negative ion modes, to enable resolution of relative quantification of the bioanalytes. These methods included: • RP-I: LC-MS of polar and non-polar abundant lipids (e.g., individual cholesterol esters, triglycerides, diacylglycerols, phospholipids, lysophospholipids); • RP-II: LC-MS of lower abundance bioanalytes (e.g., eicosanoids & other lipid mediators, fatty acids, oxidized fatty acids, bile acids, conjugated bile acids); • PLR: LC-MS of polar compounds (e.g., catecholamines & serotonin pathway, amino acids, organic acids, sugars).

[2] = Plasma lipids, lipoproteins and liver weight in normal rats versus fibrates (Example 8); format: in vivo, rat; settings: once daily p.o. 7 days
Excerpt: The study design was based on the protocols used in Examples 1-3. Male Sprague-Dawley rats were provided normal chow ad libitum, both before and during the study period. […] Six rats were assigned to each treatment group (8 to the vehicle control). The study terminated on the day following administration of the seventh dose (day 8), with terminal blood collected for plasma lipid and lipoprotein analyses including LC-MS-based determination of lipid profiles, total and free cholesterol analyses, and lipoprotein cholesterol determinations (VLDL, LDL and HDL).
In order to elucidate the impact of romazarit on plasma lipoproteins, an ultraviolet (UV) size exclusion chromatography (SEC) system was used to separate plasma into broad lipoprotein-containing fractions that were based on relative retention times of human VLDL (very low density lipoprotein), LDL (low density lipoprotein), and HDL (high density lipoprotein) standards. These fractions were collected for cholesterol assays and the UV chromatograms were integrated to provide relative quantitation of the three lipoprotein types. It is important to note that since the UV absorbance measurement is not specific for lipoproteins and may also derive from other plasma constituents that co-elute with a particular lipoprotein, the relative quantitation data reported here is an approximation. The HDL fraction in particular may have included such co-eluting species, as evidenced by the relatively high integrated area values for this fraction.

[3] = target: T1, human PPARα (Homo sapiens, UniProt Q07869); assay: PPARRE-luciferase reporter in HepG2 cells transfected with human PPARα; format: cell-based; settings: retinoic acid 200 nM, read-out: EC50 activation of human PPARα (hPPARα)
T1 construct: expressed in transfected cells; host or cells: HepG2
T1 sequence (Q07869 1-468): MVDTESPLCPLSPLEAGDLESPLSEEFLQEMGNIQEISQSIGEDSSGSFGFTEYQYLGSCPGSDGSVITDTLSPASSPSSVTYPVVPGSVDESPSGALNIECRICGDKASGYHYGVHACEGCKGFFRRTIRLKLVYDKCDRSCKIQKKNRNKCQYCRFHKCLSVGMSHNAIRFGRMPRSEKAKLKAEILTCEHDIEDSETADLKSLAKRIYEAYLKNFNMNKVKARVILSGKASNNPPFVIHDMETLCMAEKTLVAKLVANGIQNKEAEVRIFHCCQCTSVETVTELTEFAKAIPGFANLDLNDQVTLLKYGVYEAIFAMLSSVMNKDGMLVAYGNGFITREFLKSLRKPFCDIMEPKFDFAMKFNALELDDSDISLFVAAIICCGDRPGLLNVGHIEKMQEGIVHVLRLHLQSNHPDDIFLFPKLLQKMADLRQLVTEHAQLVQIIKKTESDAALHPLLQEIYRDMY
Experimental: For this study, a luciferase reporter plasmid containing 5 copies of a defined genetic regulatory PPARα response element (PPARRE) was utilized to detect romazarit-induced PPARRE activation in presence of a co-activator, retinoic acid. Specifically, HepG2 cells were transfected with expression vectors for either human or rat PPARα and the PPARRE-luciferase reporter plasmid. After 24 hours, the cells were trypsanized and subsequently seeded in 96-well clear-bottom plates at a density of 1.0×10^5 cells/ml.

[4] = Body weight, food consumption and liver weight in diet-induced obese (DIO) rat model (Example 4); format: in vivo; settings: for liver weight: rat, in vivo, po
Experimental: Male Sprague-Dawley rats were acclimated for 7 weeks on a high-fat diet before commencement of dose administration, and maintained on the same diet throughout the subsequent dosing period of 23 days. The high-fat diet (D12492 commercially available from Research Diets, Inc., New Brunswick, N.J.) was one in which at least 60% of calories are derived from fat.
Dose levels of gemfibrozil (50 mg/kg) and sibutramine (10 mg/kg) were selected based on published reports. All treatments were administered once daily by oral gavage in 10 ml vehicle. A vehicle-only control was also administered. Each treatment group consisted of 10 animals.
Body weight of each animal was measured weekly during the 7-week acclimation period and five times weekly during the 23-day dosing period. Food consumption was recorded twice weekly during the 7-week acclimation period and five times weekly during the 23-day dosing period.
Animals were sacrificed and liver weights measured at conclusion of the study.

[5] = LC-MS of plasma amino acids and thyroxine in rats (Example 2); format: in vivo, rat; settings: 7 days
Experimental: as §1
In both experiments, urine was collected from each animal by clean-catch after the final dose on day 7, and cerebrospinal fluid (CSF) and plasma were collected (terminal samples) on day 8. Aliquots of the CSF and plasma samples from each individual were submitted for LC-MS analyses of bioanalytes. Three different separation methods were run, with MS analyses in both positive and negative ion modes, to enable resolution of relative quantification of the bioanalytes.

[6] = 50 mg/kg b.i.d. p.o., second experiment
[7] = 5 and 50 mg/kg b.i.d. p.o., initial experiment
[8] = DIO rats, 50 mg/kg once daily p.o.
[9] = DIO rats, 100 mg/kg once daily p.o.

Cc1nc(-c2ccc(Cl)cc2)oc1COC(C)(C)C(=O)O [romazarit, 2-[[2-(4-chlorophenyl)-4-methyl-5-oxazolyl]methoxy]-2-methylpropanoic acid]
plasma triglycerides ([1]; 5 mg/kg b.i.d. p.o., initial experiment): also apparent
plasma triglycerides ([1]; 15 mg/kg b.i.d. p.o., second experiment): lowered plasma triglycerides to a degree that was intermediate
plasma triglycerides ([1]; 50 mg/kg b.i.d. p.o., initial experiment): highly pronounced
plasma cholesterol esters [1, 6]: generally similar to those seen with the same dose in the initial experiment
plasma triglycerides [1, 6]: generally similar to those seen with the same dose in the initial experiment
plasma cholesterol esters [1, 7]: increased
potency in lowering plasma free fatty acids compared to the other compounds tested ([2]; 50 and 100 mg/kg): superior potency
plasma cholesterol esters ([2]; 50 and 100 mg/kg (romazarit also 10 mg/kg)): increased at least some fractions of plasma cholesterol esters
plasma free fatty acids ([2]; romazarit 10, 50 and 100 mg/kg): lowered plasma free fatty acids in a dose-dependent manner
plasma triglycerides ([2]; romazarit 10, 50 and 100 mg/kg): significantly lowered
EC50 [3]: ~200 µM
food consumption ([4]; DIO rats, 15 mg/kg once daily p.o., throughout the dosing period): comparable to the vehicle control
day by which food consumption returned to levels comparable to the vehicle control [4, 8]: ≤ 15 days
day of minimum food consumption [4, 8]: 6 days
body weight loss by comparison with the vehicle control ([4]; DIO rats, 50 mg/kg once daily p.o., day 16): 10.3%
body weight loss by comparison with the vehicle control ([4]; DIO rats, 50 mg/kg once daily p.o., day 23): 4.6%
food consumption ([4]; DIO rats, 50 mg/kg once daily p.o., first 13 days of the dosing period): significantly less than the vehicle control
day by which food consumption returned to levels comparable to the vehicle control [4, 9]: ≤ 15 days
day of minimum food consumption [4, 9]: 8 days
body weight loss by comparison with the vehicle control (maximum) ([4]; DIO rats, 100 mg/kg once daily p.o., day 16): 16%
body weight loss by comparison with the vehicle control ([4]; DIO rats, 100 mg/kg once daily p.o., end of study (day 23)): 13.3%
food consumption ([4]; DIO rats, 100 mg/kg once daily p.o., first 13 days of the dosing period): significantly less than the vehicle control
liver weight ([4]; 15 mg/kg): No increase in liver weight
liver weight ([4]; 50 mg/kg): Increased liver weight
liver weight ([4]; 100 mg/kg): Increased liver weight
plasma amino acids [5, 6]: generally similar to those for the same dose in the initial experiment
plasma thyroxine [5, 6]: generally similar to those for the same dose in the initial experiment
levels of common amino acids in plasma [5, 7]: small but significant lowering
plasma thyroxine (T4) [5, 7]: concomitant decrease
